Assay results published in US20180311238A1, “Selective Agonist Of a6 Containing nAChRs” (Saniona A/S, priority 2017, published 2018).
pEC50, pKi: −log10 of the molar value.

Columns and labels:
[1] = molecular target: T1, human α3β4 nicotinic receptors (Homo sapiens, UniProt P30926+P32297); assay: FLIPR fluorescence-based calcium assay, α3β4; assay type: cell-based; conditions: FLIPR calcium response relative to nicotine
T1 construct: expressed in transfected cells
Method: (§1) The level of agonist activity of 9-methyl-3-pyridin-3-yl-3,9-diaza-bicyclo[3.3.1]nonane was tested in functional fluorescence-based calcium assays using TE671 cells and HEK293 cells stably expressing human α6/α3β2β3^V273S, α3β4 and α4β2 nicotinic receptors.
(§2) Cells were plated on poly-D-lysine coated 384-well microtiter plates and were allowed to proliferate for 24 h. Dye loading was performed by incubating cells with 2 μM fluo-4/AM for 1.5 h at room temperature. Dye not taken up by cells was removed by aspiration followed by three washing cycles with 25 μl of NMDG Ringer buffer (in mM: 140 NMDG, 5 KCl, 1 MgCl2, 10 CaCl2, 10 HEPES, pH 7.4) after which the cells were kept in 25 μl of the same buffer. The microtiter plates were placed in a Fluoremetric Imaging Plate Reader (FLIPR) and subjected to test compound at various concentrations. Background subtracted compound-mediated calcium responses were normalized to 100 μM nicotine control responses and pEC50 as well as relative maximal efficacy values were determined.

[2] = molecular target: T2, α7 (Homo sapiens, UniProt P36544); assay: Oocyte two-electrode voltage-clamp electrophysiology, α7; assay type: cell-based; conditions: Xenopus laevis oocytes, peak currents
T2 construct: expressed in transfected cells; host or cells: Xenopus laevis oocytes injected with cRNA
T2 sequence (P36544 23-502): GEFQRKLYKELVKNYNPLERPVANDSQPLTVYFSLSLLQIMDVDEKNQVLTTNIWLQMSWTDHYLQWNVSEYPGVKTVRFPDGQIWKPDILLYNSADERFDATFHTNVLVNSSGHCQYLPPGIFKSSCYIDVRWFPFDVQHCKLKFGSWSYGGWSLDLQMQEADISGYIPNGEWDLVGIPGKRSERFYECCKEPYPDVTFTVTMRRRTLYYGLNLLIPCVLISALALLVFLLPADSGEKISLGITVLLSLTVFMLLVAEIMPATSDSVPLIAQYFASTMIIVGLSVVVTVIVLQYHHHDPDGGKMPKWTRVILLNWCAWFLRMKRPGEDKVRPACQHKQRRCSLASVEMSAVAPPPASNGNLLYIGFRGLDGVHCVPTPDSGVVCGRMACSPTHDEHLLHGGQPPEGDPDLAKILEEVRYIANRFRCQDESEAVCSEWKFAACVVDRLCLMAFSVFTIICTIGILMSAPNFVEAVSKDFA
Method: (§3) Two-electrode voltage-clamp electrophysiology recordings were done in Xenopus laevis oocytes injected with approximately 25 ng cRNA. After injection, oocytes were incubated at 17° C. for 2-3 days. During measurements, an oocyte was placed in a custom designed recording chamber where compound solutions are added directly to the oocyte via a glass capillary. Compound solutions were prepared on the day of measurement and applied to oocytes with a flowrate of 2.0 ml/min. All datasets were baseline subtracted and responses to individual applications were read as peak current amplitudes. Concentration response relationships describing compound effect at a fixed acetylcholine concentration were fitted to a monophasic Hill-equation. Potency (EC50) and efficacy values (fitted maximal current relative to maximal current of acetylcholine).

[3] = molecular target: T3, human α4β2 nicotinic receptors (Homo sapiens, UniProt P17787+P43681); assay: FLIPR fluorescence-based calcium assay, α4β2; assay type: cell-based; conditions: FLIPR calcium response relative to nicotine
T3 construct: expressed in transfected cells
T3 sequence (P43681 29-627 limits assumed): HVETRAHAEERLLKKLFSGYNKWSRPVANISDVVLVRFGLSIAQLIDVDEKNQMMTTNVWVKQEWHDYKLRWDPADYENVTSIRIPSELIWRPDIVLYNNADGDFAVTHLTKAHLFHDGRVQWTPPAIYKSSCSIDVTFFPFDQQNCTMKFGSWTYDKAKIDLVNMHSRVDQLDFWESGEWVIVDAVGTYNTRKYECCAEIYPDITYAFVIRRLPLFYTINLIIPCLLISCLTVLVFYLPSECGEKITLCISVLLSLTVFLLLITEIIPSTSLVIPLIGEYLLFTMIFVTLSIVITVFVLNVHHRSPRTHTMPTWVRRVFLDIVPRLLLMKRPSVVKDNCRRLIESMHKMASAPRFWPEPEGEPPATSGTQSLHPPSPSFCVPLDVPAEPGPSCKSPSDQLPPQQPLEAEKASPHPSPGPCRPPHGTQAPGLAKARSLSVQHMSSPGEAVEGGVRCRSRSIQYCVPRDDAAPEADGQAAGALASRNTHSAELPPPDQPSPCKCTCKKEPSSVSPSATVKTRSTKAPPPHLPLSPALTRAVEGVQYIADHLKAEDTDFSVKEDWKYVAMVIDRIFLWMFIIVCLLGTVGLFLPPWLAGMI
T3 sequence (P17787 26-502): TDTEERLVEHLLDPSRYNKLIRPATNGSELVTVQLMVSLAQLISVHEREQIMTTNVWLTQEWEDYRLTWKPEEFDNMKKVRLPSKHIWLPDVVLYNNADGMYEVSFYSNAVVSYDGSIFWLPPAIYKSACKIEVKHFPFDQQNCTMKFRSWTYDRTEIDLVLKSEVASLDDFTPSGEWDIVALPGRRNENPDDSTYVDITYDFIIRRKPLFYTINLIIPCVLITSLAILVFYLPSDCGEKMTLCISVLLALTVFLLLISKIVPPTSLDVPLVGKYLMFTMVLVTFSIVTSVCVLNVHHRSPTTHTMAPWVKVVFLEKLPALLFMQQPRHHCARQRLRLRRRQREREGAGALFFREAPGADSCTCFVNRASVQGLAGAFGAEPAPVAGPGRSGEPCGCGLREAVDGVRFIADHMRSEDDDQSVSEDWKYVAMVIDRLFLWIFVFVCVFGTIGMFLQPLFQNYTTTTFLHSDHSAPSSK
Method: as §1, §2

[4] = system: α4β2 cHS/cLS receptors; assay: Oocyte two-electrode voltage-clamp electrophysiology, α4β2; assay type: cell-based; conditions: Xenopus laevis oocytes
Method: as §3

[5] = system: primary dopaminergic neuronal culture; assay: Primary dopaminergic neuronal culture injured by MPP+, number of TH positive neurons; assay type: cell-based, rat; conditions: MPP+ 4 μM, 48H; compound 1 nM to 1 μM added 1H before intoxication
Description: Pregnant female Wistar rats of 15 days gestation was euthanized by cervical dislocation and the foetuses was removed from the uterus. Hereafter, the embryonic midbrains was removed and placed in ice-cold medium of Leibovitz containing 2% of Penicillin-Streptomycin and 1% of bovine serum albumin (BSA). Only the ventral portions of the mesencephalic flexure were used for the cell preparations as this is the region of the developing brain rich in dopaminergic neurons. The midbrains were dissociated by trypsinisation for 20 min at 37° C. (Trypsin EDTA 1X). The reaction was stopped by the addition of DULBECCO′S MODIFIED Eagle's medium (DMEM) containing DNAse I grade II (0.1 mg/ml) and 10% foetal calf serum (FCS). Cells were then mechanically dissociated by 3 passages through a 10 ml pipette. Cells was then centrifuged at 180×g for 10 min at 4° C. on a layer of BSA (3.5%) in L15 medium. The supernatant was discarded, and the cells of pellet were re-suspended in a defined culture medium consisting of Neurobasal supplemented with B27 (2%), L-glutamine (2 mM) and 2% of PS solution and 10 ng/ml BDNF and 1 ng/ml of Glial cell-derived neurotrophic factor (GDNF). Viable cells were counted in a Neunauer cytometer using the tryphan blue exclusion test. […]
Half of the medium was changed every 2 days with fresh medium. […] Following an additional 48H of incubation, the number of TH positive neurons were counted. […]

[6] = molecular target: T4, neuromuscular nAChRs subtype composed of α1β1γδ subunits (Homo sapiens, UniProt P02708+P07510+Q07001); assay: biochemical; assay type: binding
T4 construct: endogenous in cells; host or cells: TE671
T4 sequence (P02708 21-457): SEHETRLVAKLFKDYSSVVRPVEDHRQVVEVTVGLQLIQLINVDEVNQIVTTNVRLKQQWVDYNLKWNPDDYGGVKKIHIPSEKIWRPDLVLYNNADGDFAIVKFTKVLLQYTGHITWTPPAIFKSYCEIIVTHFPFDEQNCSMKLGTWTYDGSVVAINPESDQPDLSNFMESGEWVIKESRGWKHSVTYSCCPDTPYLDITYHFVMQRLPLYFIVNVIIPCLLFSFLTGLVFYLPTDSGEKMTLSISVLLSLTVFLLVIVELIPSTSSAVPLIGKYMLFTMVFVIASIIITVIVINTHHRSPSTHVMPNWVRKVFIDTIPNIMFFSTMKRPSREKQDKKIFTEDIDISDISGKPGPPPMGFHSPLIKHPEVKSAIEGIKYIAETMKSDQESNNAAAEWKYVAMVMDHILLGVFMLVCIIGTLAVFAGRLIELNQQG
T4 sequence (Q07001 22-517): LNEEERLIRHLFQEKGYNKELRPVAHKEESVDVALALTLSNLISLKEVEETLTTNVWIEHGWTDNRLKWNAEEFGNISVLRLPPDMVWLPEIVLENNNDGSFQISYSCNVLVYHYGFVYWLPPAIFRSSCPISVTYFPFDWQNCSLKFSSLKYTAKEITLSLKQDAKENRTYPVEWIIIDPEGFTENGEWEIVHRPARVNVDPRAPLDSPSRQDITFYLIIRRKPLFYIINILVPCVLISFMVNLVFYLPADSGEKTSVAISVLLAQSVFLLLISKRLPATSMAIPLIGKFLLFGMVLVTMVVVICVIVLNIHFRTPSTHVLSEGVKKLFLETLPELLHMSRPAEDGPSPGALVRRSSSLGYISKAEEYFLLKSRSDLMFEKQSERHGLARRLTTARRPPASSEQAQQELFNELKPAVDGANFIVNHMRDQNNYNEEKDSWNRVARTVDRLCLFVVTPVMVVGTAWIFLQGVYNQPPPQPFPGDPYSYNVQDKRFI
T4 sequence (P07510 23-517): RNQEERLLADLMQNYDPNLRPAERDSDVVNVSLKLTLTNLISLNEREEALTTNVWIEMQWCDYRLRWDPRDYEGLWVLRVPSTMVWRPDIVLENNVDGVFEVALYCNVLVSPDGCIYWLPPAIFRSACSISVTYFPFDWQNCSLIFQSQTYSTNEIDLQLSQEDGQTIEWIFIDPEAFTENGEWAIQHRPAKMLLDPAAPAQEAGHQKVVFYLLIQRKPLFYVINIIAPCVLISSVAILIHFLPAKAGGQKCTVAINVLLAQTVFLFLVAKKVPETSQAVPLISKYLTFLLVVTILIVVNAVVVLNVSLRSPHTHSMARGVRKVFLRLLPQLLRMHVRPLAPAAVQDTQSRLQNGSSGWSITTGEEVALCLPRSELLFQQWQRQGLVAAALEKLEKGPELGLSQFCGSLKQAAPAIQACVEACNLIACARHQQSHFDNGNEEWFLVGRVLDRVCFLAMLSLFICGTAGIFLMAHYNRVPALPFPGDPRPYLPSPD
T4 sequence (P11230 24-501, further chain): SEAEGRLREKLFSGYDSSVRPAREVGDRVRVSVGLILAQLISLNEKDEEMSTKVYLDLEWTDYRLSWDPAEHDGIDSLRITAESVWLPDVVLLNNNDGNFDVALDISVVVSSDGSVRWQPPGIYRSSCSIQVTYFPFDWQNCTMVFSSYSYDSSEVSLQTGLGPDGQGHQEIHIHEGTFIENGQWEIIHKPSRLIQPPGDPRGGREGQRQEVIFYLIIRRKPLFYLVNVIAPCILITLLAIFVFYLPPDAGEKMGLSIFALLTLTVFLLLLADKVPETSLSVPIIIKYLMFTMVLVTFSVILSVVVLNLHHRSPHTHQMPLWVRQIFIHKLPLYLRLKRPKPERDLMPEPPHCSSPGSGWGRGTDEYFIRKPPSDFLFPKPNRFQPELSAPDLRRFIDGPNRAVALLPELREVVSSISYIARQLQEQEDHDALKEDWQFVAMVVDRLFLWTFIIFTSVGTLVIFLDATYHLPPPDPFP

T1 sequence (P32297 32-505): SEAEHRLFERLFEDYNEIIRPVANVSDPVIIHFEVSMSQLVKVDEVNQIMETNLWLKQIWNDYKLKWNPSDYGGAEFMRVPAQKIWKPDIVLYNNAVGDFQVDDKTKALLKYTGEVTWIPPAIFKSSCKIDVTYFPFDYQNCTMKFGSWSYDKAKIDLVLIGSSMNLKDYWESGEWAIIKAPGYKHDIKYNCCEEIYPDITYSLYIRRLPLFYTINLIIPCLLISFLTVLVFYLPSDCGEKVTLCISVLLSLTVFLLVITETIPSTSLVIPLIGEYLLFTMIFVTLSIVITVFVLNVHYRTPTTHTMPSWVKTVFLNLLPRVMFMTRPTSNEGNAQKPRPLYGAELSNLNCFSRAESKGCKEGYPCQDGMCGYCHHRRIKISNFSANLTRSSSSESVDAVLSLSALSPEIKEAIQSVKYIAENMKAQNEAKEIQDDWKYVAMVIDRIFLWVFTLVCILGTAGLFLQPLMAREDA
T1 sequence (P30926 22-498): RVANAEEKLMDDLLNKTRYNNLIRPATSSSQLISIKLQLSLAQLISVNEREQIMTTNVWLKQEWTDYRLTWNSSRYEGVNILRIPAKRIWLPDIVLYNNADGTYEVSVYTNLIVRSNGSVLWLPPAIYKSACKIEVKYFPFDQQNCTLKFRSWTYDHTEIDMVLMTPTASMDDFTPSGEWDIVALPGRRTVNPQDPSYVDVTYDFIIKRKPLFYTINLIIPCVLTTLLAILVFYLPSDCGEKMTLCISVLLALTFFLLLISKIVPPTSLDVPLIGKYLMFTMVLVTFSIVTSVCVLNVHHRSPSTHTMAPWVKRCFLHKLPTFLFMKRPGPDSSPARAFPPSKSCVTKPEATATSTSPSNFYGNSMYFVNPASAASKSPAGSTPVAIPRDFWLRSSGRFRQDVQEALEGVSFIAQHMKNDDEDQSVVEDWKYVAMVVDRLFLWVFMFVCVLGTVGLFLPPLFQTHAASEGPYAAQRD

SMILES: CN1C2CCCC1CN(c1cccnc1)C2 [9-methyl-3-pyridin-3-yl-3,9-diaza-bicyclo[3.3.1]nonane]
- efficacy [1]: practically no efficacy
- pEC50 [2]: 4.89
- efficacy [3]: practically no efficacy
- efficacy [4]: practically no efficacy
- neuroprotective effect, number of TH positive neurons [5]: concentration-dependent neuroprotective effect
- pKi [6]: 6.49
